# Reference: US12509424B2, “Compound and composition as PDGF receptor kinase inhibitor” (NIPPON SHINYAKU CO., LTD., priority 2019, dated 2025)
# Experiments:
# [1] = target: TEL-KIT fusion gene transfected cells (Ba/F3); assay: Suppression of proliferation of TEL-KIT fusion gene transfected Ba/F3 cells; details: read-out: KIT/BaF3 proliferation inhibition (IC50); TEL-KIT expressing Ba/F3 cells, 72 hours, final concentration 0.1 to 10,000 nM;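 also: viable cells quantified via formazan from tetrazolium reduction, inhibition scaled with 0.1% DMSO control as 0% and medium-only blank as 100%, IC50 from two-parameter logistic fit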
# TEL-KIT fusion gene transfected cells (Ba/F3), sequence (P10721 26-976 limits assumed, change not shown): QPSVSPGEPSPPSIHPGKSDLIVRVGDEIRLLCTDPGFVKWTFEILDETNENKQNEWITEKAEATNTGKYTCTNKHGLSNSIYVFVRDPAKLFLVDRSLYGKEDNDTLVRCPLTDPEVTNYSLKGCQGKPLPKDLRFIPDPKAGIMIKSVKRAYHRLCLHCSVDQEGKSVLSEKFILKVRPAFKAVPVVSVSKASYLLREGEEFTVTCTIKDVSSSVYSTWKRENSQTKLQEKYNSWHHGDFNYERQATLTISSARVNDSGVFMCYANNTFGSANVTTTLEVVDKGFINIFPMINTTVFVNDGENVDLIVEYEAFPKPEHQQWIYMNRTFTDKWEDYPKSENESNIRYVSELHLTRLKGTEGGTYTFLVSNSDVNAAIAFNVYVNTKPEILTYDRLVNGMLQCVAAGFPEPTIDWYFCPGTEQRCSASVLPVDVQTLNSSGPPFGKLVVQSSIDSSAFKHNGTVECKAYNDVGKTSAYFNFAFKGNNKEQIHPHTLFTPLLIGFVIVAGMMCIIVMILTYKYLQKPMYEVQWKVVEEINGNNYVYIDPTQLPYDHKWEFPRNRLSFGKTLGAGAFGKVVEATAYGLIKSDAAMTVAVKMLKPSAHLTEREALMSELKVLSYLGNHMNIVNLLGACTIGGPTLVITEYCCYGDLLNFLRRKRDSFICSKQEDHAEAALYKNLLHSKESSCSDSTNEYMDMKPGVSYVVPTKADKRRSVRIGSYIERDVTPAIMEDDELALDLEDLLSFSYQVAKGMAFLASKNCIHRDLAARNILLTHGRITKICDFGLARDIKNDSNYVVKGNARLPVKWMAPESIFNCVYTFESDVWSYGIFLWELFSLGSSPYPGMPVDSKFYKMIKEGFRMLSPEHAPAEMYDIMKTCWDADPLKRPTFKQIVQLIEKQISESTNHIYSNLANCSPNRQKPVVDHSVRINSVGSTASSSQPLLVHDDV
# [2] = system: pulmonary arterial smooth muscle cells; assay: Suppression of proliferation of pulmonary arterial smooth muscle cells (PDGF-BB stimulation, BrdU); assay type: cell-based; details: PASMC; human PDGF-BB 10 ng/mL, BrdU uptake, final concentration 3 to 10,000 nM; read-out: Human normal PASMC proliferation suppression (PDGF stimulation_IC50)
# Summary of the method: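 Test compound (final 3 to 10,000 nM) was added together with BrdU and PDGF-BB (final 10 ng/mL) to healthy human pulmonary artery smooth muscle cells held a day in 0.1% FBS. Proliferation was read after 1 day as anti-BrdU-detected BrdU incorporation.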
# [3] = target: TEL-PDGFRβ fusion gene transfected cells (Ba/F3); assay: Suppression of proliferation of TEL-PDGFRβ fusion gene transfected Ba/F3 cells; assay type: cell-based, human; details: TEL-PDGFRβ expressing Ba/F3 cells, 72 hours, final concentration 0.1 to 10,000 nM; read-out: PDGFR β/BaF3 proliferation inhibition (IC50)
# TEL-PDGFRβ fusion gene transfected cells (Ba/F3), sequence (P09619 33-1106 limits assumed, change not shown): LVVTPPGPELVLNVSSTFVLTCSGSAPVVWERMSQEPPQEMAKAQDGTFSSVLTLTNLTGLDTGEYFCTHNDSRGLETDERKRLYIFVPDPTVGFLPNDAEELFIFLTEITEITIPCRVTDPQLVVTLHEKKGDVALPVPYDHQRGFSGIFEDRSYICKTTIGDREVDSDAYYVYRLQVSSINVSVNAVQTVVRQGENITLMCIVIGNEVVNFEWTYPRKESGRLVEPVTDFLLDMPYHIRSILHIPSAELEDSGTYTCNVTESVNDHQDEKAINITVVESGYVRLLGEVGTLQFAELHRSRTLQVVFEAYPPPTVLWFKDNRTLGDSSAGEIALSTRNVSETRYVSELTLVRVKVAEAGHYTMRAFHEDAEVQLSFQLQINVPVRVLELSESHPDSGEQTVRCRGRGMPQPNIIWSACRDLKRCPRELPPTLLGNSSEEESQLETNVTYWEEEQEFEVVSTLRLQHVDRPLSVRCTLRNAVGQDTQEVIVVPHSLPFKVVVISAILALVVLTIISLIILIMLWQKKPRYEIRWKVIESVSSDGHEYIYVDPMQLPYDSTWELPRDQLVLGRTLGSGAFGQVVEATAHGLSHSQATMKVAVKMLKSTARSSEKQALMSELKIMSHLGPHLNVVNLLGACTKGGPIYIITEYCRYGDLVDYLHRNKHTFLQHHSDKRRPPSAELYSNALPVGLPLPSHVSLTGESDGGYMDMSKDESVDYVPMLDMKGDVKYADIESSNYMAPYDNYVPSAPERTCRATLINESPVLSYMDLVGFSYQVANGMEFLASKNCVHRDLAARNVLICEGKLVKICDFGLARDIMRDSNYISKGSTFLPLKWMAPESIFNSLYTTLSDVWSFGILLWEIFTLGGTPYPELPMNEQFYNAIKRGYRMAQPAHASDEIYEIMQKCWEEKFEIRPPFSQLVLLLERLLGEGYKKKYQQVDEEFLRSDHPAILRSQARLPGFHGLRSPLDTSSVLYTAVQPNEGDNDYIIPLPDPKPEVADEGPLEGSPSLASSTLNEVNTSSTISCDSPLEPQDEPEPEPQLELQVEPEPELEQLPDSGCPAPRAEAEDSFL
# Source text: 2. Preparation of Test Substance
# 4. Analysis of Measurement Results
# PDGFR-β = PDGFR-β (Homo sapiens (Human), UniProt P09619); assay: PDGFR-β tyrosine kinase inhibitory action (HTRF KinEASE-TK); assay type: biochemical; details: PDGFR-β enzyme 1 ng/μL, 30° C. for 30 minutes; read-out: PDGF-β IC50
# PDGFR-β, sequence (P09619 33-1106): as the sequence (P09619 33-1106 limits assumed, change not shown) above
# Summary of the method: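 Recombinant PDGFR-β at 1 ng/μL final with TK substrate-3-biotin in a substrate solution containing 0.6 μM ATP; buffer 50 mM HEPES pH 7.0, 5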
Structure (SMILES),IC50 [1],IC50 [2],IC50 [3],IC50 (PDGFR-β)
"Cc1ccc(C(=O)N[C@H]2CCCC[C@@H]2O)cc1NC(=O)c1cnc(NC2CC2)s1 [Example 1, 2-(cyclopropylamino)-N-(5-{[(1S,2S)-2-hydroxycyclohexyl]carbamoyl}-2-methylphenyl)-1,3-thiazole-5-carboxamide]",480 nM,110 nM,17 nM,5.9 nM
"Cc1ccc(C(=O)N[C@H]2CCCC[C@@H]2O)cc1NC(=O)c1cncc(-c2ccccc2)c1 [Example 2, N-(5-{[(1S,2S)-2-hydroxycyclohexyl]carbamoyl}-2-methylphenyl)-5-phenylpyridine-3-carboxamide]",200 nM,23 nM,3.6 nM,22 nM
"Cc1ccc(C(=O)N[C@H]2CCCC[C@@H]2O)cc1NC(=O)c1cnc(CC2CC2)s1 [Example 3, 2-(cyclopropylmethyl)-N-(5-{[(1S,2S)-2-hydroxycyclohexyl]carbamoyl}-2-methylphenyl)-1,3-thiazole-5-carboxamide]",620 nM,30 nM,1.4 nM,82 nM
"Cc1ccc(C(=O)N[C@H]2CCCC[C@@H]2O)cc1NC(=O)c1cncc(NC2CC2)c1 [Example 4, 5-(cyclopropylamino)-N-(5-{[(1S,2S)-2-hydroxycyclohexyl]carbamoyl}-2-methylphenyl)pyridine-3-carboxamide]",1500 nM,220 nM,26 nM,4.9 nM
"Cc1ccc(C(=O)N[C@H]2CCCC[C@@H]2O)cc1NC(=O)c1cnc(-c2ccccc2)o1 [Example 5, N-(5-{[(1S,2S)-2-hydroxycyclohexyl]carbamoyl}-2-methylphenyl)-2-phenyl-1,3-oxazole-5-carboxamide]",170 nM,48 nM,5.8 nM,6.1 nM
"Cc1ccc(C(=O)N[C@H](CO)c2ccccc2)cc1NC(=O)c1cncc(-c2ccccc2)c1 [Example 6, N-(5-{[(1S)-2-hydroxy-1-phenylethyl]carbamoyl}-2-methylphenyl)-5-phenylpyridine-3-carboxamide]",170 nM,23 nM,14 nM,12 nM
"Cc1ccc(C(=O)N[C@H]2CCCC[C@@H]2O)cc1NC(=O)c1cncc(OC(C)C)c1 [Example 7, N-(5-{[(1S,2S)-2-hydroxycyclohexyl]carbamoyl}-2-methylphenyl)-5-[(propan-2-yl)oxy]pyridine-3-carboxamide]",1900 nM,150 nM,43 nM,170 nM
"Cc1ccc(C(=O)N[C@H]2CCCC[C@@H]2O)cc1NC(=O)c1cnc(NCC2CC2)s1 [Example 8, 2-[(cyclopropylmethyl)amino]-N-(5-{[(1S,2S)-2-hydroxycyclohexyl]carbamoyl}-2-methylphenyl)-1,3-thiazole-5-carboxamide]",650 nM,110 nM,9.7 nM,6 nM
"Cc1ccc(C(=O)N[C@H]2CCCC[C@@H]2O)cc1NC(=O)c1cncc(-c2ccc(Cl)cc2)c1 [Example 9, 5-(4-chlorophenyl)-N-(5-{[(1S,2S)-2-hydroxycyclohexyl]carbamoyl}-2-methylphenyl)pyridine-3-carboxamide]",530 nM,46 nM,22 nM,26 nM
"CCCc1ncc(C(=O)Nc2cc(C(=O)N[C@H]3CCCC[C@@H]3O)ccc2C)s1 [Example 10, N-(5-{[(1S,2S)-2-hydroxycyclohexyl]carbamoyl}-2-methylphenyl)-2-propyl-1,3-thiazole-5-carboxamide]",660 nM,140 nM,25 nM,220 nM
"Cc1ccc(C(=O)N[C@H]2CCCC[C@@H]2O)cc1NC(=O)c1cncc(-c2cccc(Cl)c2)c1 [Example 11, 5-(3-chlorophenyl)-N-(5-{[(1S,2S)-2-hydroxycyclohexyl]carbamoyl}-2-methylphenyl)pyridine-3-carboxamide]",310 nM,49 nM,13 nM,17 nM
"Cc1ccc(C(=O)N[C@H]2CCCC[C@@H]2O)cc1NC(=O)c1cncc(-c2ccccc2C)c1 [Example 12, N-(5-{[(1S,2S)-2-hydroxycyclohexyl]carbamoyl}-2-methylphenyl)-5-(2-methylphenyl)pyridine-3-carboxamide]",800 nM,65 nM,35 nM,170 nM
"Cc1ccc(C(=O)N[C@H]2CCCC[C@@H]2O)cc1NC(=O)c1cncc(-c2ccccc2Cl)c1 [Example 13, 5-(2-chlorophenyl)-N-(5-{[(1S,2S)-2-hydroxycyclohexyl]carbamoyl}-2-methylphenyl)pyridine-3-carboxamide]",790 nM,100 nM,17 nM,140 nM
"CCC[C@@H](CO)NC(=O)c1ccc(C)c(NC(=O)c2cncc(-c3ccccc3)c2)c1 [Example 14, N-(5-{[(2S)-1-hydroxypentan-2-yl]carbamoyl}-2-methylphenyl)-5-phenylpyridine-3-carboxamide]",330 nM,48 nM,11 nM,40 nM
"Cc1ccc(C(=O)N[C@H]2CCCC[C@@H]2O)cc1NC(=O)c1cncc(/C=C/C2CC2)c1 [Example 15, 5-[(E)-2-cyclopropylethenyl]-N-(5-{[(1S,2S)-2-hydroxycyclohexyl]carbamoyl}-2-methylphenyl)pyridine-3-carboxamide]",330 nM,18 nM,3.9 nM,11 nM
"Cc1ccc(C(=O)N[C@H]2CCCC[C@@H]2O)cc1NC(=O)c1cncc(NCC2CC2)c1 [Example 16, 5-[(cyclopropylmethyl)amino]-N-(5-{[(1S,2S)-2-hydroxycyclohexyl]carbamoyl}-2-methylphenyl)pyridine-3-carboxamide]",1300 nM,81 nM,130 nM,22 nM
"Cc1ccc(C(=O)N[C@H]2CCCC[C@@H]2O)cc1NC(=O)c1cncc(N(C)C2CC2)c1 [Example 17, 5-[cyclopropyl(methyl)amino]-N-(5-{[(1S,2S)-2-hydroxycyclohexyl]carbamoyl}-2-methylphenyl)pyridine-3-carboxamide]",800 nM,130 nM,10 nM,42 nM
"COc1ccc(-c2cncc(C(=O)Nc3cc(C(=O)N[C@H]4CCCC[C@@H]4O)ccc3C)c2)cc1 [Example 18, N-(5-{[(1S,2S)-2-hydroxycyclohexyl]carbamoyl}-2-methylphenyl)-5-(4-methoxyphenyl)pyridine-3-carboxamide]",530 nM,47 nM,20 nM,39 nM
"Cc1ccc(C(=O)N[C@H]2CCCC[C@@H]2O)cc1NC(=O)c1cncc(-c2ccc(F)cc2)c1 [Example 19, 5-(4-fluorophenyl)-N-(5-{[(1S,2S)-2-hydroxycyclohexyl]carbamoyl}-2-methylphenyl)pyridine-3-carboxamide]",1000 nM,81 nM,30 nM,13 nM
"Cc1ccc(C(=O)N[C@H]2CCCC[C@@H]2O)cc1NC(=O)c1cncc(-c2cccc(F)c2)c1 [Example 20, 5-(3-fluorophenyl)-N-(5-{[(1S,2S)-2-hydroxycyclohexyl]carbamoyl}-2-methylphenyl)pyridine-3-carboxamide]",900 nM,77 nM,24 nM,13 nM
"Cc1ccc(C(=O)N[C@H]2CCCC[C@@H]2O)cc1NC(=O)c1cncc(-c2ccc(C(F)(F)F)cc2)c1 [Example 21, N-(5-{[(1S,2S)-2-hydroxycyclohexyl]carbamoyl}-2-methylphenyl)-5-[4-(trifluoromethyl)phenyl]pyridine-3-carboxamide]",2000 nM,140 nM,60 nM,73 nM
"Cc1ccc(C(=O)N[C@H]2CCCC[C@@H]2O)cc1NC(=O)c1cncc(-c2cccc(C(F)(F)F)c2)c1 [Example 22, N-(5-{[(1S,2S)-2-hydroxycyclohexyl]carbamoyl}-2-methylphenyl)-5-[3-(trifluoromethyl)phenyl]pyridine-3-carboxamide]",900 nM,100 nM,59 nM,14 nM
"CC(C)=Cc1cncc(C(=O)Nc2cc(C(=O)N[C@H]3CCCC[C@@H]3O)ccc2C)c1 [Example 23, N-(5-{[(1S,2S)-2-hydroxycyclohexyl]carbamoyl}-2-methylphenyl)-5-(2-methylprop-1-en-1-yl)pyridine-3-carboxamide]",620 nM,64 nM,4.9 nM,26 nM
"Cc1ccc(C(=O)N[C@H]2CCCC[C@@H]2O)cc1NC(=O)c1cncc(OCC2CC2)c1 [Example 24, 5-(cyclopropylmethoxy)-N-(5-{[(1S,2S)-2-hydroxycyclohexyl]carbamoyl}-2-methylphenyl)pyridine-3-carboxamide]",1200 nM,110 nM,11 nM,64 nM
